{"source": "patent US4287035A", "about": "“Method for producing rapid pH changes” (priority 1979, dated 1981)", "key": {"[1]": {"experiment": "pK values of representative molecules in ground state (S0) and first excited singlet state (S1), Table I", "type": "physicochemical", "settings": "S0 to S1", "from_the_text": "As shown by the data of the tables set forth in Ireland et al., the phenomenon is quite general and is characteristic of bases as well as acids. Ireland et al. is hereby incorporated by reference. Values of pK for representative molecules in the ground state (S0) and the first excited singlet state (S1) are given in Table I. Deprotonation results in increased acidity whereas protonation increases the basicity of the solution. […] The change in pK may be quite large."}, "[2]": {"experiment": "Comparison of proton transfer time and excited state lifetime", "type": "physicochemical", "settings": "for proton transfer time: excited state; for ability to produce pH change: on electronic excitation", "from_the_text": "Consider the situation wherein the proton transfer time for either protonation or deprotonation is longer than the excited state lifetime of the molecules in question. In this situation, it is not possible to achieve an acid-base equilibrium during the excited state lifetime. As a result, some of the photons that could be used to produce protons under acid-base equilibrium conditions are no longer available for this purpose because the excitation produced by them is lost in various decay processes from the excited state (see FIG. 1). It will be apparent therefore, that to maximize the pH change for a particular concentration and radiation fluence, it is highly desirable that the proton transfer time be substantially shorter than the excited state lifetime.\nIt can, however, be readily determined for any compound of interest by means of time resolved spectroscopy of species in the solution. In the case of an acid reaction of the type shown in reaction (1), these would be the acid AH and the anion A^-. Such spectroscopy permits the concentrations of these species to be ascertained.\nThe requisite spectroscopic measurements are quite straightforward if (a) the excited states of both AH and A^- fluoresce, (b) the fluorescence from the excited states of AH and A^- is sufficiently spectrally shifted that they can be distinguished from one another, and (c) excited state protonation and deprotonation occur with retention of the electronic excitation. […] In those instances where they are not met it is still possible to obtain the necessary information by means of various techniques well known to those versed in the spectroscopic arts. Thus, for example, lack of fluorescence from the excited states of AH and A^- can be overcome by probing with excited-state absorption spectroscopy rather than emission spectroscopy."}, "[3]": {"experiment": "Excited state protonation/deprotonation of 2-naphthol-6-sulfonate by picosecond laser/streak camera fluorescence", "type": "physicochemical", "from_the_text": "A number of runs were made to obtain measurements from which the rates of excited state protonation and deprotonation kf and kb, respectively, could be determined for the reaction: [formula] […] As long as the solution is not so acidic as to make the protonation reaction fast (pH≤3), the rate of excited state proton transfer is simply determined from the risetime of the anion emission.\nSince the fluorescence of 2-naphthol-6-sulfonate (λmax ~360 nm) is considerably shifted from that of its anion (λmax ~430 nm), only the anion emission is recorded when 450±10 nm spectral filter 14 is placed between the sample cell 12 and the slit of streak camera 15. FIG. 4 is a plot of the risetime (10-90%) of the emission from the 2-naphthol-6-sulfonate anion versus the initial pH of the solution. Individual points represent the average of four to six separate streak camera exposures. […] At very high acidities, the protonation rate becomes so rapid that the temporal profile of the excited anion emission follows that of the protonated species.\nBy measuring the time history of both anionic and acidic species under a variety of experimental conditions and using a kinetic scheme which includes terms for the fluorescence lifetimes and quenching, the complete kinetics of the excited state protonation deprotonation are readily obtained. For 2-naphthol-6-sulfonate, kf =(1.02±0.3)×10^9 sec^-1 and kb =(9.0±3)×10^10 l-mole^-1 -sec^-. The solid line of FIG. 4 is a fit using a kinetic model with kf and kb having these values."}, "[4]": {"settings": "cited from earlier work; for pK(S0): ground state"}, "[5]": {"experiment": "pH jump (more acidic) by 266 nm irradiation of 2-naphthol-6-sulfonate solution", "excerpt": "A single 30 psec pulse 4 at 1064 nm is extracted from the pulse train of mode-locked Nd:YAG laser 1 by means of Blumlein electronic switchout unit 3. The flowing dye 2 serves to mode lock laser 1. A second harmonic of pulse 4 is generated at 532 nm in KDP crystal 5.\nWavelengths other than 532 nm are then removed from pulse 4 by means of spectral filters 6. The 532 nm pulse is reflected from mirror 7 through ADP crystal 8 where it in turn is frequency doubled to produce the fourth harmonic at 266 nm.\nBeam splitter 11 directs a portion of the 266 nm pulse to energy meter 20. […] The beam size on sample 12 is ~0.1 mm. […] Appropriate filters 14 are used to isolate various emission bands.\nThe pH of the solutions was adjusted by addition of reagent grade HCl or NaOH and was measured on a pH meter (Fisher Model 230) accurate to about 0.1 pH unit."}, "[6]": {"settings": "ground state, cited from earlier work"}, "[7]": {"settings": "cited from earlier work"}, "[8]": {"experiment": "Excited state protonation of coumarin 102 by time-resolved fluorescence", "type": "physicochemical", "from_the_text": "(§1) A proton attaches at the carbonyl site by the reaction [formula] Here Kp is the protonation rate constant and kdp is the deprotonation rate constant.\n(§2) Experimental runs utilized laser grade coumarin 102 (Eastman) which was maintained at a concentration of 1.0×10^-3 M in a 1:1 H2 O:ethanol solvent. Deionized, distilled water and reagent grade ethanol were used for all of the runs. The solution pH was varied by the addition of reagent grade HCl and measured to an accuracy of 0.05 pH unit with a pH meter (Markson 90). The apparatus of FIG. 3 was modified to the extent that ADP crystal 8 was replaced by a KDP sum frequency generator to produce […] radiation which excited the sample. Filter 9 was either a 435 nm interference filter or a Corning 2-62 filter to isolate fluorescence from coumarin 102 and its cation, respectively.\nThe experimental runs were made to obtain measurements of the time history of both species under a variety of experimental conditions."}, "[9]": {"experiment": "pH jump (more basic) by irradiation of coumarin 102 solution", "type": "physicochemical", "from_the_text": "as §1, §2"}, "[10]": {"settings": "1.0×10^-3 M in water, 266 nm, 20 psec pulse"}, "[11]": {"settings": "reaction as drawn in the line of Table II"}}, "note": "“Also recorded” adds a separate entry of the source. Where two headings read alike, the source gives them in different places.", "data": [{"smiles": "O=S(=O)(O)c1ccc2cc(O)ccc2c1", "note": "[2-Naphthol-6-Sulfonate]", "values": [{"measurement": "pK change upon excitation", "setting": "[1]", "value": 7}, {"measurement": "excited state lifetime", "setting": "[2]", "value": "1e-08", "unit": "s"}, {"measurement": "proton transfer time", "setting": "[2]", "value": "less than 1×10^-9 sec"}, {"measurement": "ability to produce pH change", "setting": "[2]", "value": "can be used to produce large and very rapid pH modulation"}, {"measurement": "results with freshly prepared and day-old solutions", "setting": "[3]; 1.0×10^-3 M in water", "value": "identical"}, {"measurement": "rate of excited state deprotonation/proton transfer, kf", "setting": "[3]; [10]", "value": "(1.02±0.3)×10^9 sec^-1"}, {"measurement": "rate of excited state protonation, kb", "setting": "[3]; [10]", "value": "(9.0±3)×10^10 l-mole^-1 -sec^-"}, {"measurement": "risetime (10-90%) of anion emission versus initial pH", "setting": "[3]; 450±10 nm, initial pH varied", "value": "As the solution becomes more acidic, the risetime becomes more rapid"}, {"measurement": "pK(S0)", "setting": "[4]", "value": 9.1}, {"measurement": "excited state acid-base equilibrium", "setting": "[5]", "value": "excited state acid-base equilibrium is achieved"}, {"measurement": "excited state lifetime", "setting": "[5]", "value": "about 10 nsec"}, {"measurement": "increase in H3O^+", "setting": "[5]; 20 psec, 266 nm pulse, typically 30 μJ", "value": "more than 10^-4 M"}, {"measurement": "proton transfer time", "setting": "[5]; excited state", "value": "less than 1 nsec"}]}, {"smiles": "Oc1ccc2ccccc2c1", "note": "[2-Naphthol]", "values": [{"measurement": "excited state lifetime", "setting": "[2]", "value": "~ 6×10^-9 sec"}, {"measurement": "proton transfer time", "setting": "[2]", "value": "2e-08", "unit": "s"}, {"measurement": "ability to produce pH change", "setting": "[2]", "value": "cannot; also recorded: the amount of the change is substantially less than that which can be achieved with 2-naphthol-6-sulfonate"}, {"measurement": "pK(S0)", "setting": "[4]", "value": 9.5}]}, {"smiles": "Nc1ccc2ccccc2c1", "note": "[2-Naphthylamine]", "values": [{"measurement": "pK(S0)", "setting": "[6]; [11]", "value": "≥ 14"}, {"measurement": "pK(S0)", "setting": "[6]; second 2-Naphthylamine line, reaction drawing 7", "value": 4.1}]}, {"smiles": "c1ccc2nc3ccccc3cc2c1", "note": "[Acridine]", "values": [{"measurement": "pK(S0)", "setting": "[6]; [11]", "value": 5.5}]}, {"smiles": "c1ccc(N=Nc2ccccc2)cc1", "note": "[Azobenzene]", "values": [{"measurement": "pK(S0)", "setting": "[6]; [11]", "value": -2.90}]}, {"smiles": "c1ccc2c(c1)Cc1ccccc1-2", "note": "[Fluorene, reference compound]", "values": [{"measurement": "pK change upon excitation", "setting": "[1]", "value": 29}]}, {"smiles": "c1ccc2ccccc2c1", "note": "[Naphthalene]", "values": [{"measurement": "pK(S0)", "setting": "[6]; [11]", "value": -4.0}]}, {"smiles": "c1ccc2c(c1)ccc1ccccc12", "note": "[Phenanthrene, reference compound]", "values": [{"measurement": "acidity/basicity in ground and excited state", "setting": "[4]; ground state versus first excited singlet state", "value": "becomes less acidic (more basic) in the excited state"}, {"measurement": "pK(S0)", "setting": "[4]", "value": -3.5}]}, {"smiles": "O=c1c2ccccc2oc2ccccc12", "note": "[Xanthone]", "values": [{"measurement": "triplet state lifetime", "setting": "[7]", "value": "several to tens of milliseconds"}, {"measurement": "pK(S0)", "setting": "[6]; [11]", "value": -4.1}]}, {"smiles": "O=C(c1ccccc1)c1ccccc1", "note": "[benzophenone]", "values": [{"measurement": "triplet state lifetime", "setting": "[7]", "value": "several to tens of milliseconds"}]}, {"smiles": "Cc1cc(=O)oc2c3c4c(cc12)CCCN4CCC3", "note": "[coumarin 102]", "values": [{"measurement": "deprotonation during excited state lifetime", "setting": "[8]; 1:1 H2O:ethanol", "value": "very small"}, {"measurement": "excited state acid-base equilibrium", "setting": "[8]; 1:1 H2O:ethanol", "value": "excited state acid-base equilibrium is not achieved"}, {"measurement": "excited state lifetime", "setting": "[8]; 1.0×10^-3 M in 1:1 H2O:ethanol", "value": "3.3±0.3", "unit": "nsec"}, {"measurement": "excited state protonation rate constant kp", "setting": "[8]; 1.0×10^-3 M in 1:1 H2O:ethanol, 355 μm (so in the source) excitation", "value": "(1.6 ±0.3)×10^10 l-mole^-1 -sec^-1"}, {"measurement": "quenching of excited states", "setting": "[9]; concentrations near 10^-3 M", "value": "no evidence of quenching of excited states"}, {"measurement": "pH after pH jump", "setting": "[9]; initial pH 4, 355 nm pulses >1 mJ", "value": 4.1}]}]}
